Results taken from PMC9136011, “Targeting the Homologous Recombination Pathway in Cancer With a Novel Class of RAD51 Inhibitors” (Frontiers in Oncology, 2022).
pIC50: −log10 of the molar value.

Assays:
Daudi xenograft = Daudi xenograft mouse model, tumor growth inhibition; assay type: in vivo; conditions: 2 mg/kg Cisplatin intraperitoneally every week
Protocol: Daudi xenograft mouse model was established by subcutaneously implantation of 10^7 cells into the female BABL/c nude mice at the age of 6-8 weeks. When tumors reached approximately 100-120 mm^3, the mice were randomly grouped into five groups (n=6) and treated with vehicle control orally every day, 30 mg/kg or 100 mg/kg Cpd-4 orally every day, 2 mg/kg Cisplatin intraperitoneally every week, or combination of 30 mg/kg Cpd-4 and 2 mg/kg Cisplatin. Cpd-4 was formulated in 30% PEG400 (Sigma) and 70% 10% vitamin E TPGS (Sigma) in water. Cisplatin was reconstituted in normal saline. Cpd-4 was administrated starting from Day 0 and Cisplatin was administrated starting from on Day1. Cisplatin was administrated 4 hours after the treatment of Cpd-4 at day 1, 8 and 15. Tumor volume was monitored twice a week.
The long diameter (a) and the short diameter (b) of the tumor were measured using caliper and the tumor volume (v was calculated using the following formula: […]
Tumor growth inhibition was calculated using the formula:
TGI(%)=(1−(Vt(treatment group)−V0(treatment group))/Vt(vehicle group)−V0(vehicle group))×100%
V0 is the tumor volume of the animal when treatment starts; vtis the tumor volume of the animal someday after treatment. The statistics of tumor volume was analyzed by two-way ANOVA followed by Tukey’s multiple comparisons test using GraphPad Prism 8.0.

A549 cells = assay: Cell growth inhibition assay (CellTiter-Glo) and Bliss synergy analysis; assay type: cell-based; conditions: Homo sapiens, A549, 168 h; 7 days, estimated from four-parameter curve
Protocol: (§1) Cells were seeded in opaque-walled 96-well microplates at appropriate densities according to the growth curves (data no shown). On the following day cells were dosed with compounds. After 7 days treatments, cells viability was measured by adding 30μL CellTiter-Glo reagent (Promega) and incubated for 10 min at RT. Luminescence was measured by Envision plate reader (Perkin Elmer). For synergy analysis, the survival rates of the cells upon different treatment combinations were calculated based on the luminescence and analyzed by Combenefit software. The bliss independence model was used to analyzed the interaction between two tested articles to determine if the interaction between those two tested articles was synergistic, independent or antagonistic.

Daudi cells = assay: as above; assay type: cell-based; conditions: Homo sapiens, 168 h, 7 days; for pIC50: estimated from four-parameter curve
Protocol: as §1

KP-4 cells = assay: as above; assay type: cell-based; conditions: Homo sapiens, KP-4, 168 h; 7 days, estimated from four-parameter curve
Protocol: as §1

MDA-MB-436 cells = assay: as above; assay type: cell-based; conditions: Homo sapiens, MDA-MB-436, 168 h; 7 days, estimated from four-parameter curve
Protocol: as §1

MIA PaCa-2 cells = assay: as above; assay type: cell-based; conditions: Homo sapiens, MIA PaCa-2, 168 h; 7 days, estimated from four-parameter curve
Protocol: as §1

NCI-H23 cells = assay: as above; assay type: cell-based; conditions: Homo sapiens, NCI-H23, 168 h; 7 days, estimated from four-parameter curve
Protocol: as §1

HCC15 cells = assay: Cell growth inhibition assay (CellTiter-Glo); assay type: cell-based; conditions: Homo sapiens, HCC15, 168 h; 7 days, estimated from four-parameter curve
Protocol: as §1

HCC1937 cells = assay: Cell growth inhibition assay (CellTiter-Glo); assay type: cell-based; conditions: Homo sapiens, HCC1937, 168 h; 7 days, estimated from four-parameter curve
Protocol: as §1

HuP-T4 cells = assay: Cell growth inhibition assay (CellTiter-Glo); assay type: cell-based; conditions: Homo sapiens, HuP-T4, 168 h; 7 days, estimated from four-parameter curve
Protocol: as §1

MDA-MB-231 cells = assay: Cell growth inhibition assay (CellTiter-Glo); assay type: cell-based; conditions: Homo sapiens, MDA-MB-231, 168 h; 7 days, estimated from four-parameter curve
Protocol: as §1

MDA-MB-468 cells = assay: Cell growth inhibition assay (CellTiter-Glo); assay type: cell-based; conditions: Homo sapiens, MDA-MB-468, 168 h; 7 days, estimated from four-parameter curve
Protocol: as §1

NCI-H1563 cells = assay: Cell growth inhibition assay (CellTiter-Glo); assay type: cell-based; conditions: Homo sapiens, NCI-H1563, 168 h; 7 days, estimated from four-parameter curve
Protocol: as §1

NCI-H526 cells = assay: Cell growth inhibition assay (CellTiter-Glo); assay type: cell-based; conditions: Homo sapiens, NCI-H526, 168 h; 7 days, estimated from four-parameter curve
Protocol: as §1

Raji cells = assay: Cell growth inhibition assay (CellTiter-Glo); assay type: cell-based; conditions: Homo sapiens, 168 h, 7 days, estimated from four-parameter curve
Protocol: as §1

Z-138 cells = assay: Cell growth inhibition assay (CellTiter-Glo); assay type: cell-based; conditions: Homo sapiens, Z-138, 168 h; 7 days, estimated from four-parameter curve
Protocol: as §1

normal WI-38 cells = assay: Cell growth inhibition assay, normal cells; assay type: cell-based; conditions: Homo sapiens, read-out: IC50, normal cell viability
Protocol: as §1

[1] = system: 15 human tumor cell lines; assay: Cell growth inhibition assay, panel summary; assay type: cell-based; conditions: lowest to highest, upper end printed as over 25 μM, read-out: IC50 values across the 15 cell lines
Protocol: as §1

| Compound | TGI (Daudi xenograft) | pIC50 (A549 cells) | pIC50 (Daudi cells) | inhibition at 0.25 µM (Daudi cells; Cpd-2 250 nM) | pIC50 (KP-4 cells) | pIC50 (MDA-MB-436 cells) | pIC50 (MIA PaCa-2 cells) | pIC50 (NCI-H23 cells) | pIC50 (HCC15 cells) | pIC50 (HCC1937 cells) | pIC50 (HuP-T4 cells) | pIC50 (MDA-MB-231 cells) | pIC50 (MDA-MB-468 cells) | pIC50 (NCI-H1563 cells) | pIC50 (NCI-H526 cells) | pIC50 (Raji cells) | pIC50 (Z-138 cells) | pIC50 (normal WI-38 cells) | pIC50 [1] |
| --- | --- | --- | --- | --- | --- | --- | --- | --- | --- | --- | --- | --- | --- | --- | --- | --- | --- | --- | --- |
| N.N.[Cl][Pt][Cl] [Cisplatin, cisplatin] | 20.7% | – | – | – | – | – | – | – | – | – | – | – | – | – | – | – | – | – | – |
| CC(C)OC(=O)Nc1ccc(-c2cnc(C3CCC(NC(=O)OC(C)C)CC3)s2)c(S(=O)(=O)C2CC2)c1 (stereo not shown) [Cpd-2] | – | 5.40 | 7.32 | 41.1% | 5.50 | 5.58 | 5.32 | 5.45 | 5.69 | 5.48 | 5.10 | 5.29 | 6.20 | 4.89 | 6.45 | 6.79 | 5.34 | < 5.00 | – |
| O=C(c1cc(Cc2n[nH]c(=O)c3ccccc23)ccc1F)N1CCN(C(=O)C2CC2)CC1 [Olaparib, olaparib] | – | 4.75 | 5.24 | – | 5.15 | 6.87 | 5.15 | 5.48 | 5.04 | 4.97 | 5.11 | 5.31 | 5.26 | < 4.60 | 5.41 | 5.31 | 5.83 | – | 4.60 to 6.87 |
